Reference: US20080014230A1, “Cosmetic compositions combining a C-glycoside derivative and an N-acylamino amide derivative” (L'OREAL, priority 2006, published 2008)
One block for each compound: values may come before it.

System: keratinocyte transglutamase (TGk) activity in normal human epidermal keratinocytes (NHEK) of R3KO15 type
Assay: keratinocyte transglutamase (TGk) activity after prolonged contact of keratinocytes with the test composition
Type: cell-based
Details: for Activity/μg: TGk activity relative to the amount of proteins, calcium-free medium; for %/blank: TGk activity, % of blank (−Ca)
Experimental: The tests performed below use normal human epidermal keratinocytes (NHEK) of R3KO15 type obtained from breast surgery.
The activity of a composition in accordance with the invention is tested with regard to these keratinocytes by assaying the keratinocyte transglutamase (TGk) activity after prolonged contact of the keratinocytes with the test composition, the increase in TGk activity sanctioning a stimulation of keratinocyte differentiation.
The activity is tested in an SFM medium available from Invitrogen under the reference 17005034.
Its composition is as follows: • EGF 0.25 ng/ml, • pituitary extract (PE) 25 μg/ml (Invitrogen 3700015), • gentamycin 25 μg/ml (Sigma G1397) • optionally supplemented with 1.5 mM final calcium chloride (Prolabo 22317297).
Keratinocytes (R3KO15) are precultured in SFM1x medium in 96-well plates (one plate for the test, one for the protein assay and one for the MTT). After incubation for 24 hours at 37° C., the culture medium is removed and replaced with SFM medium, which is not supplemented (calcium-free blank) or supplemented with 1.5 mM final of calcium chloride and not containing (blank) or containing the products, mixed with the test or the references.
After incubation for 48 hours at 37° C. and 5% CO2, the culture medium is removed and the cells are again treated and then incubated for 48 hours at 37° C.
All the experimental conditions are performed in hexaplicate.
The cell lawns are washed and then sonicated, on ice, in Tris/EDTA pH 8.0 buffer.
The membrane TGk enzyme is extracted in the presence of Triton X-100 (incubation with stirring at 4° C.) and the TGk activity is then determined by measuring the covalent addition of tritiated putrescine at 2 μCi/ml final (Amersham TRK 414; 1.04 TBq/mmol, 28 Ci/mmol) to casein (acceptor protein, 2 mg/ml final), in a Tris 0.1 M, CaCl2 4 mM, EDTA 0.4 mM, DTT 5 mM, pH 8.3 buffer, for 2 hours at 37° C.
The casein is precipitated by addition of 20% trichloroacetic acid (TCA) containing 1 mM putrescine and the precipitates are recovered on a Skatron filter and collector (extensive washing with 5% TCA, 0.1 mM putrescine and ethanol) and the dry filters are then counted by liquid scintillation.
The proteins of each sample are assayed using the Dc Protein Assay kit (BioRad 500-0116) and according to the protocol recommended by the manufacturer.
The results obtained are given in Table 1 below, the TGk activity being relative to the amount of proteins—calcium-free medium.

Activity/μg (1 mM): 171 | Activity/μg (3 mM): 210 | %/blank (1 mM): 136% | %/blank (3 mM): 167%
SMILES: CC(O)C[C@@H]1OC[C@@H](O)[C@H](O)[C@H]1O (stereo partly drawn) [C-glycoside, C-β-D-xylopyranoside-2-hydroxypropane]

SMILES: CC(=O)N(c1cccc(C(F)(F)F)c1)C(C(=O)NCC(=O)O)C(C)C (centres unmarked) [N-acylamino amide, {2-[acetyl(3-trifluoromethyl-phenyl)amino]-3-methylbutyrylamino}acetic acid]
Activity/μg (0.04 mg/ml): 114 | Activity/μg (0.2 mg/ml): 104 | %/blank (0.04 mg/ml): 91% | %/blank (0.2 mg/ml): 82% | effect on the TGk activity (in words) (tested at 0.2 mg/ml and 0.04 mg/ml): no significant effect

SMILES: CC1=C(/C=C/C(C)=C/C=C/C(C)=C/C(=O)O)C(C)(C)CCC1 [Retinoic acid, retinoic acid, reference compound]
Activity/μg (10^−7 M): 111 | %/blank (10^−7 M): 88%
